For orientation: EC50 means the midpoint of the concentration-response curve. A word on the IC50: it is the midpoint of a concentration-inhibition curve.

For one test, the system named is PC-12. Nature of the test: Anti-anoxic activity in rat PC12 cells reduction in assessed as sodium hydrosulfite-induced cell injury. The class given is functional, cell-based.
The target in test [1] is Sodium/potassium-transporting ATPase. Nature of the test: Inhibition of Na+/K+-ATPase in human placental syncytiotrophoblast-microvillous membranes/basal membranes using 3-O-methylfluorescein phosphate by fluorometric method.
The next test concerns the target T1, Sortase A (Staphylococcus aureus, UniProt Q9S446).
T1 sequence (Q9S446 whole entry): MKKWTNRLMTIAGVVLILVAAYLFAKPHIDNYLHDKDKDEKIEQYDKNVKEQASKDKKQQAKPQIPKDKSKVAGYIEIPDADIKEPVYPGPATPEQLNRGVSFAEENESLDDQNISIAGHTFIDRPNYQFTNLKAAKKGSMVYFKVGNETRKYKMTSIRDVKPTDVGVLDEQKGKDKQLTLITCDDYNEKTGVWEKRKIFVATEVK
Nature of the test: Inhibition of recombinant Staphylococcus aureus ATCC 6538p sortase A incubated for 1 hr in presence of (Dabcyl-QALPETGEE-Edans substrate by fluorescence spectrophotometry.

Test [2] can be described thus: Inhibition of Magnaporthe grisea Guy 11 isocitrate lyase. Also on record: species or system Pyricularia grisea.
A further test has as its target Cathepsin B (Homo sapiens, UniProt P07858). Nature of the test: Inhibition of cathepsin B (unknown origin) assessed as reduction in enzyme activity.

≈ marks a conversion by molar mass, not a printed value. Bounds are passed on as bounds.

Take `CSc1c(C(=O)O)sc2nc3[nH]c(=O)[nH]c(=O)c3nc12`: the EC50 with PC-12 came out at 27 µg/mL (≈ 87 µM).

For the compound `COC(=O)c1ccccc1NC(=O)[C@@H](NC(=O)c1cnc2c(n1)c(=O)[nH]c(=O)n2C)[C@@H](C)O`, the IC50 (in test [1]; on Sortase A; in test [2]) was above 100 µM in each case.

Regarding `COCCOC(=O)C1=C(C)NC(C)=C(C(=O)OC(C)C)C1c1cccc([N+](=O)[O-])c1` (stereo not given) [NIMODIPINE], the half-maximal effective concentration (EC50) with PC-12 amounted to 1.29 µg/mL (≈ 3.08 µM).

With `COC(=O)c1ccccc1NC(=O)[C@H](CO)NC(=O)c1cnc2c(n1)c(=O)[nH]c(=O)n2C`, the 50% inhibitory concentration (IC50) (in test [1]; at Sortase A; in test [2]) was above 100 µM in each case.

As to `CN(CCc1cnc[nH]1)c1cnc2[nH]c(=O)[nH]c(=O)c2n1`, on Cathepsin B, the IC50 is 4.87 µM.

With `CSc1c(C(=O)CO)sc2nc3[nH]c(=O)[nH]c(=O)c3nc12`, the EC50 with PC-12 was 19.5 µg/mL (≈ 60.2 µM).
